The text below walks through data of patent US10987349B2, “Antitumor agent and bromodomain inhibitor” (FUJIFILM Corporation, priority 2016, dated 2021).

Experiment [1] concerns human undifferentiated thymoma cell line Ty-82. Kind of experiment: Cell growth test (Cell Titer Glo) Ty-82. The experiment is classed as cell-based. The conditions noted are these: TY82, 3 to 5 days. The source says:
(§1) The human undifferentiated thymoma cell line Ty-82 (JCRB), the human acute myeloid leukemia cell lines MV4-11 (ATCC), MOLM-13 (ATCC) and RS4-11 (ATCC), the human lymphoma cell line Raji (JCRB), the human cervical epidermoid carcinoma cell line Hela (JCRB), the human lung adenocarcinoma cell line A549 (ATCC), the human colon cancer cell lines DLD1 (DS Pharma) and HCT116 (DS Pharma), and the human pancreatic cancer cell line MIAPACA-2 (ATCC) were used to carry out a cell growth test.
(§2) Ty-82, MV4-11, MOLM-13, RS4-11, Raji and DLD1 were each seeded in a well plate, in which Roswell Park Memorial Institute (RPMI)-1640 medium supplemented with penicillin/streptomycin and fetal bovine serum (FBS) with a final concentration of 10% was placed. Hela was seeded in Dulbecco's Modified Eagle's medium (DMEM) supplemented with penicillin/streptomycin and FBS with a final concentration of 10%. A549 and MIAPACA-2 were each seeded in a well plate, in which Minimum Essential Medium (MEM) supplemented with penicillin/streptomycin and FBS with a final concentration of 10% was placed. HCT116 was seeded in a well plate, in which McCoy's 5A medium supplemented with penicillin/streptomycin and FBS with a final concentration of 10% was placed.
(§3) Thereafter, a medium containing a test compound serially diluted with DMSO, or DMSO, was added to each well of the plate, in which the cells had been seeded, and the obtained mixture was then cultured under conditions of 37° C. and 5% CO2 for 3 to 5 days. Cell Titer Glo reaction solution (Promega) was added to the culture, and the amount of luminescence was then measured using Envision plate reader (PerkinElmer). Since the amount of luminescence is in proportion to the concentration of adenosine triphosphate (ATP) in cells, the amount of luminescence was used as an indicator of the number of living cells. The growth inhibition percentage of the test compound in each concentration was calculated according to the following equation. Growth inhibition percentage (%)=(amount of luminescence in test compound−added well)/(amount of luminescence in DMSO−added well)×100
(§4) The growth inhibition percentage of the test compound in each concentration was plotted by performing a non-linear regression analysis [(log (inhibitor) vs. response—Variable slope (four parameters)], using Graphpad prism 5, and a 50% growth inhibitory concentration [GI50 (nmol/L)] was then calculated.
(In general: ATP-based viability assays read luminescence as a measure of living cells.)

Experiment [2] has as its target T1, BRD4 BD1 (Homo sapiens, UniProt O60885).
T1 construct: BRD2 BD1, BRD3 BD1 and BRD4 BD1 (Cisbio); purchased Cisbio
As to the kind of experiment: Binding assay, BRD4 BD1 to acetylated histone H4 Peptide-Biotin (EPIgeneous Binding Domain Kit A). The conditions noted are these: for inhibition at 0.3 µM: test compound at 300 nmol/L, read-out: Binding inhibition percentage BRD4 BD1. The gist of the method: (§5)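 HTRF competition: bromodomain protein (added at 20 nmol/L) and biotinylated tetra-acetyl H4(1-25) peptide (added at 25 nmol/L) were incubated with compound, streptavidin-d2 and anti-GST Eu cryptate for 20 h at room temperature. Inhibition came from the 665/620 nm ratio relative to DMSO; IC50 by four-parameter fit; some compounds were tested only at 300 nmol/L final.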

Experiment [3] addresses T2, BRD4 BD2 (Homo sapiens, UniProt O60885).
T2 construct: BRD2 BD2, BRD3 BD2 and BRD4 BD2 (Cisbio); purchased Cisbio
As to the kind of experiment: Binding assay, BRD4 BD2 to acetylated histone H4 Peptide-Biotin (EPIgeneous Binding Domain Kit B). Conditions: for inhibition at 0.3 µM: test compound at 300 nmol/L, read-out: Binding inhibition percentage BRD4 BD2. The gist of the method: (§6)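 HTRF binding of GST-tagged BD2 (20 nmol/L working stock) to biotinylated acetyl-histone H4 peptide (250 nmol/L working stock), using streptavidin-XL665 and anti-GST Eu cryptate. Incubated 20 h at room temperature; 665/620 nm ratio versus DMSO gives % inhibition; IC50 by four-parameter fit, or % inhibition at 300 nmol/L.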

Experiment [4] addresses T3, BRD3 BD1 (Homo sapiens, UniProt Q15059).
T3 construct: BRD2 BD1, BRD3 BD1 and BRD4 BD1 (Cisbio); purchased Cisbio
Kind of experiment: Binding assay, BRD3 BD1 to acetylated histone H4 Peptide-Biotin (EPIgeneous Binding Domain Kit A). The conditions noted are these: for inhibition at 0.3 µM: test compound at 300 nmol/L, read-out: Binding inhibition percentage BRD3 BD1. The gist of the method:
as §5

For experiment [5], the target named is T4, BRD3 BD2 (Homo sapiens, UniProt Q15059).
T4 construct: BRD2 BD2, BRD3 BD2 and BRD4 BD2 (Cisbio); purchased Cisbio
T4 sequence (Q15059 306-415 limits assumed): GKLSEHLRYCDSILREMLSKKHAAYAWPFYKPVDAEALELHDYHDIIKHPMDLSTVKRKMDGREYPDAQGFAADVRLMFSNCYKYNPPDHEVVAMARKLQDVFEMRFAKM
Kind of experiment: Binding assay, BRD3 BD2 to acetylated histone H4 Peptide-Biotin (EPIgeneous Binding Domain Kit B). Conditions: for inhibition at 0.3 µM: test compound at 300 nmol/L, read-out: Binding inhibition percentage BRD3 BD2. A digest of the protocol: as §6

In experiment [6] the test system is human acute myeloid leukemia cell line MOLM-13. Kind of experiment: Cell growth test (Cell Titer Glo) MOLM-13. The experiment is classed as cell-based. The conditions noted are these: 3 to 5 days.
From the text: as §1, §2, §3, §4

Experiment [7] has as its target T5, BRD2 BD1 (Homo sapiens, UniProt P25440).
T5 construct: BRD2 BD1, BRD3 BD1 and BRD4 BD1 (Cisbio); purchased Cisbio
Kind of experiment: Binding assay, BRD2 BD1 to acetylated histone H4 Peptide-Biotin (EPIgeneous Binding Domain Kit A). The conditions noted are these: for inhibition at 0.3 µM: test compound at 300 nmol/L, read-out: Binding inhibition percentage BRD2 BD1. A digest of the protocol: as §5

Experiment [8] has as its system human acute myeloid leukemia cell line MV4-11. Kind of experiment: Cell growth test (Cell Titer Glo) MV4-11. The experiment is classed as cell-based. Conditions: 3 to 5 days.
From the text: as §1, §2, §3, §4

The target of experiment [9] is T6, BRD2 BD2 (Homo sapiens, UniProt P25440).
T6 construct: BRD2 BD2, BRD3 BD2 and BRD4 BD2 (Cisbio); purchased Cisbio
T6 sequence (P25440 344-453 limits assumed): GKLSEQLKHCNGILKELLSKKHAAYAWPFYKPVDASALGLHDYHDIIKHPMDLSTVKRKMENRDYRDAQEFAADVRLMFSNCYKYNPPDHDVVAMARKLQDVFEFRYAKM
Kind of experiment: Binding assay, BRD2 BD2 to acetylated histone H4 Peptide-Biotin (EPIgeneous Binding Domain Kit B). The conditions noted are these: for inhibition at 0.3 µM: test compound at 300 nmol/L, read-out: Binding inhibition percentage BRD2 BD2. A digest of the protocol:
as §6

The test system of experiment [10] is MV4-11 subcutaneously transplanted tumor. Kind of experiment: Medicinal effect test, MV4-11-subcutaneously-transplanted cancer-bearing mouse models, oral administration. Type of experiment: in vivo. The conditions noted are these: orally, once per day, 14 days, BALB/c nu/nu mice. On the procedure: The human acute myeloid leukemia cell line MV4-11 (ATCC) was suspended in a mixture of RPMI-1640 medium and Matrigel (Corning), and the obtained mixture was then subcutaneously transplanted into 6-week-old female BALB/c nu/nu mice (CLEA Japan, Inc.). After confirming that the average tumor volume exceeded 200 mm^3, a test compound was dissolved in a solvent (a 0.5% methyl cellulose aqueous solution or water containing 1 equivalent of hydrochloric acid), and the obtained solution was then orally administered to the mice at a daily dose of 10 to 30 mg/kg, once per day, for 14 days. As a negative control, a solvent administration group involving administration of a 0.5% methyl cellulose aqueous solution was established. The tumor diameter was measured on a daily basis, and the tumor volume was calculated. The tumor volume was calculated by measuring the major axis and minor axis of the tumor and then applying the following equation. Tumor volume (mm^3)=[major axis (mm)×minor axis (mm)×minor axis (mm)]/2
T/C (%) was calculated from the average tumor volume of each group according to the following equation, and medicinal effects were then evaluated. T/C(%)=[1−(average tumor volume of drug administration group)/(average tumor volume of solvent administration group)]×100%

T5 sequence (P25440 74-180 limits assumed): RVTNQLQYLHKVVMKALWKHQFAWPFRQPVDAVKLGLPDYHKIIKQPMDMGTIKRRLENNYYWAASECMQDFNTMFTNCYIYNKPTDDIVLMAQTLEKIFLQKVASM
T3 sequence (Q15059 34-140 limits assumed): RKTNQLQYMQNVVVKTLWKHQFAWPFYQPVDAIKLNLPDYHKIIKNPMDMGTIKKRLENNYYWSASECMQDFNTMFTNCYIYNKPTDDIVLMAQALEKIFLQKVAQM

Take `CCn1c(=O)cc(C2CCN(C)CC2)c2cc(C(=O)N3CCCc4ccccc43)ccc21` [Example 11, 6-(3,4-dihydroquinolin-1 (2H)-ylcarbonyl)-1-ethyl-4-(1-methylpiperidin-4-yl)quinolin-2(1H)-one]: the values for the GI50 in [1], in experiment [6] and in [8] were 23 nM, 44 nM and 22 nM, respectively. The inhibition at 0.3 µM in [2] came out at 94%; in experiment [3], 83%; in experiment [4], 94%; in experiment [5] it was 83%; in experiment [7] it was 94%; in experiment [9] it was 79%.

In the case of `CCn1c(=O)cc(N2CCOCC2)c2cc(-n3c(-c4ccc(Cl)cc4)cn(C)c3=O)ccc21` [Example 246, 6-(5-(4-chlorophenyl)-3-methyl-2-oxo-2,3-dihydro-1H-imidazol-1-yl)-1-ethyl-4-(morpholin-4-yl)quinolin-2(1H)-one], the “T/C (%)” value in experiment [10] (10 mg/kg) was determined as 13%; in experiment [10] (30 mg/kg), 33%. Moreover, the GI50 in experiment [1] is 17 nM; in [6], 43 nM; in [8], 16 nM. Moreover, the IC50 is 40 nM in experiment [2]; 7 nM in [3]; 91 nM in experiment [4]; 12 nM in [5]; 144 nM in [7]; 18 nM in [9]. Moreover, the inhibition at 0.3 µM was determined as 67% in experiment [2]; 84% in [3]; 55% in [4]; 90% in [5]; 34% in [7]; 82% in experiment [9].

For `CCn1c(=O)cc(N2CCOCC2)c2cc(-n3c(-c4ccccc4)cn(C(C)C)c3=O)ccc21` [Example 247, 1-ethyl-4-(morpholin-4-yl)-6-(2-oxo-5-phenyl-3-(propan-2-yl)-2,3-dihydro-1H-imidazol-1-yl)quinolin-2(1H)-one], the “T/C (%)” value in experiment [10] (30 mg/kg) came out at 33%. Moreover, the results for the GI50 in [1], in [6] and in experiment [8] were 11 nM, 43 nM and 16 nM, respectively. Also, the inhibition at 0.3 µM in experiment [2] came to 94%; in experiment [3], 89%; in experiment [4], 93%; in experiment [5], 91%; in [7], 83%; in experiment [9], 90%.

As for `CCn1c(=O)cc(C2CCC(O)CC2)c2cc(C(=O)N(C)c3ccc(Cl)cc3)ccc21` (stereo not drawn) [Example 286, N-(4-chlorophenyl)-1-ethyl-4-(4-hydroxycyclohexyl)-N-methyl-2-oxo-1,2-dihydroquinoline-6-carboxamide], the inhibition at 0.3 µM in [2] amounted to 95%; in experiment [3], 89%; in experiment [4], 94%; in [5], 93%; in experiment [7], 91%; in experiment [9], 89%.

`CCn1c(=O)cc(C2CCN(C(C)=O)CC2)c2cc(C(=O)N(C)c3ccc(C)cc3)ccc21` [Example 290, 4-(1-acetylpiperidin-4-yl)-1-ethyl-N-methyl-N-(4-methylphenyl)-2-oxo-1,2-dihydroquinoline-6-carboxamide]: the IC50 in experiment [2] stood at 6 nM; in experiment [3] it was 22 nM; in [4], 15 nM; in [5], 59 nM; in experiment [7], 45 nM; in [9], 86 nM.

As to `CCn1c(=O)cc(C)c2cc(-c3cccnc3-c3ccccc3)ccc21` [Example 291, 1-ethyl-4-methyl-6-(2-phenylpyridin-3-yl)quinolin-2(1H)-one], the inhibition at 0.3 µM in [2] is 85%; in [3], 84%; in experiment [4], 88%; in experiment [5] it was 91%; in [7], 64%; in experiment [9], 83%.

On to `CCn1c(=O)cc(C2CCN(C)CC2)c2cc(C(=O)N(C)c3ccc(C)c(F)c3)ccc21` [Example 292, 1-ethyl-N-(3-fluoro-4-methylphenyl)-N-methyl-4-(1-methylpiperidin-4-yl)-2-oxo-1,2-dihydroquinoline-6-carboxamide], for which the inhibition at 0.3 µM amounted to 95% in experiment [2]; 85% in [3]; 94% in [4]; 87% in experiment [5]; 93% in [7]; 81% in experiment [9].

Consider `CCn1c(=O)cc(C2CCN(C)CC2)c2cc(C(=O)N(C)c3ccc(C)c(Cl)c3)ccc21` [Example 293, N-(3-chloro-4-methylphenyl)-1-ethyl-N-methyl-4-(1-methylpiperidin-4-yl)-2-oxo-1,2-dihydroquinoline-6-carboxamide], for which the inhibition at 0.3 µM in experiment [2] was 94%; in experiment [3] it was 87%; in [4] it was 93%; in [5], 90%; in experiment [7], 94%; in [9] it was 88%.

For the compound `CCn1c(=O)cc(C2CCN(C)CC2)c2cc(C(=O)N(C)c3ccc(C)c(C)c3)ccc21` [Example 294, N-(3,4-dimethylphenyl)-1-ethyl-N-methyl-4-(1-methylpiperidin-4-yl)-2-oxo-1,2-dihydroquinoline-6-carboxamide], the inhibition at 0.3 µM in experiment [2] came to 94%; in experiment [3] it was 85%; in experiment [4], 95%; in experiment [5] it was 90%; in experiment [7] it was 94%; in [9], 84%.

For orientation: GI50 means the concentration that inhibits growth by half. Higher therefore signals lower sensitivity of the cells. A word on the inhibition: it is the share of the control response that was lost under treatment. What is called IC50 is the point on the concentration scale where inhibition reaches its midpoint. The low end stands for greater potency, the high end for weaker potency.
